# Data as given in PubChem BioAssay AID2060341 (Molecular Pharmacology Branch, DTP, NCI, 2025).
# Test system: 327498-153-R-J2-PDC multicell spheroid viability
# Assay: Anticancer human tumor 327498-153-R-J2-PDC patient-derived uterine carcinosarcoma cell line growth inhibition [IpAb]
# Conditions: for IC50: curve of first compound; for viability, T/C: stronger effect = lower value
# From the text: Combinatorial screen of targeted agents with ipatasertib and abemaciclib in multi-cell type tumor spheroids
# A high-throughput screen of multi-cell type tumor spheroids was designed to identify active combinations of targeted small molecules and ipatasertib or abemaciclib. Complex spheroids include a stromal component modeled by human endothelial cells (HUVEC) and fibroblasts modeled by human mesenchymal stem cells (MSCs). The concentration ranges selected for each drug and investigational agent were based upon clinically achievable concentrations if the clinical Cmax of the agent was known.
# Compounds. The drugs and investigational agents: ipatasertib (NSC767898), abemaciclib(NSC768073), selumetinib (NSC741078), trametinib (758246), adavosertib (NSC754352), everolimus (NSC733504), sapanisertib (NSC764658), vemurafenib (NSC761431), venetoclax (NSC766270), copanlisib (NSC809693), apelisib (NSC765974), palbociblib (NSC758247), vemurafenib (NSC761431), dabrafenib (NSC764134), ravoxertinib (NSC781343), BMS-387032 (NSC767048), sotorasib (NSC818433), talazoparib (NSC767125) and afursertib (NSC778305), were obtained from the National Cancer Institute (NCI) Developmental Therapeutics Program Chemical Repository. The FDA-approved anticancer drug set is available from the NCI Developmental Therapeutics Program. […] The stock solutions were prepared in dimethyl sulfoxide (DMSO, Sigma-Aldrich, St. Louis, MO, cat. D2650) at 800-fold the tested concentration and stored at -70 degrees C prior to their use. All drugs and investigational agents were tested over a range starting from a high concentration at or near the clinical Cmax and decreasing in half-log increments. If the clinical Cmax for an agent had not been determined, the highest concentration tested was 10 microM.
# NCI60 Cell Culture. NCI60 cell lines were obtained from the NCI Developmental Therapeutics Program Tumor Repository. For each lot of cells, the Repository performed Applied Biosystems AmpFLSTR Identifiler testing with PCR amplification to confirm consistency with the published Identifier STR profile for each cell line. Cells were kept in continuous culture for no more than 20 passages. The optimal seeding densities for each of the cell lines at each time point assessed were determined prior to performing the concentration response studies. Briefly, the NCI60 human tumor lines were grown as monolayers in RPMI 1640 medium supplemented with 10% FBS and 2 mmol/L L-glutamine.
# An additional 9 lines were from the NCI60 cell line panel including MDA-MB-231 breast carcinoma, MDA-MB-468 breast carcinoma, MCF7 breast carcinoma, Hs578T breast carcinoma, MALME-3M melanoma, SK-MEL-2 melanoma, SK-OV-3 ovarian carcinoma, DU-145 prostate carcinoma, PC-3 prostate carcinoma, all cell lines along with major genetic alterations are listed on Table 2. Pooled donor human umbilical vein endothelial cells (HUVEC, Lonza, cat. CC-2519) and human mesenchymal stem cells (hMSC, Lonza, cat. PT-2501) were purchased from Lonza (Walkersville, MD).
# PDMR cell lines were grown in complete medium (DC medium): Dulbecco's modified Eagle's medium (DMEM)/F12 supplemented with 5% fetal bovine serum (FBS), 2 mM L-glutamine, 100 U/mL penicillin and 100 µg/ml streptomycin, 0.4 µg/ml hydrocortisone, 10 ng/ml epidermal growth factor (EGF) recombinant human protein, 24 µg/mL adenine, and 0.1 mg/mL primocin. During culture from frozen stock vials, PDMR cells were cultured in the same medium containing 10 µM Y-27632 (see Table 3). The PDCs were cultured in complete DMEM/F12 media without 10 microM Y-27632 dihydrochloride for at least two passages prior to the screen. The pooled donor HUVEC and hMSC were cultured in endothelial cell growth medium 2 (PromoCell, Heidelberg, Germany, cat. C-22011) and mesenchymal stem cell growth medium 2 (PromoCell, cat. C-28009), respectively. For all experiments, HUVEC and hMSC were used at passages </=5.
# […]
# 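Also: spheroids exposed to agents for 7 days.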
# 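For viability, T/C in this document: 100% = DMSO vehicle control viability.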
smiles,measurement,setting,value
CC(=O)c1c(C)c2cnc(Nc3ccc(N4CCNCC4)cn3)nc2n(C2CCCC2)c1=O + CC(C)NCC(C(=O)N1CCN(c2ncnc3c2C(C)CC3O)CC1)c1ccc(Cl)cc1,IC50,second compound 0.1 µM,> 300 nM
same,IC50,second compound 0.316 µM,45.7 nM
same,IC50,second compound 1 µM,7.23 nM
same,IC50,second compound 3.16 µM,1.34 nM
same,IC50,second compound 10 µM,< 0.949 nM
same,"viability, T/C","second compound 0.1 µM, first compound 0.000949 µM",96.4%
same,"viability, T/C","second compound 0.1 µM, first compound 0.003 µM",101%
same,"viability, T/C","second compound 0.1 µM, first compound 0.00949 µM",91.2%
same,"viability, T/C","second compound 0.1 µM, first compound 0.03 µM",68.8%
same,"viability, T/C","second compound 0.1 µM, first compound 0.0949 µM",65.9%
same,"viability, T/C","second compound 0.1 µM, first compound 0.3 µM",55.4%
same,"viability, T/C","second compound 0.316 µM, first compound 0.000949 µM",81.6%
same,"viability, T/C","second compound 0.316 µM, first compound 0.003 µM",71.2%
same,"viability, T/C","second compound 0.316 µM, first compound 0.00949 µM",68.2%
same,"viability, T/C","second compound 0.316 µM, first compound 0.03 µM",51.8%
same,"viability, T/C","second compound 0.316 µM, first compound 0.0949 µM",44.1%
same,"viability, T/C","second compound 0.316 µM, first compound 0.3 µM",41.5%
same,"viability, T/C","second compound 1 µM, first compound 0.000949 µM",61.5%
same,"viability, T/C","second compound 1 µM, first compound 0.003 µM",57.5%
same,"viability, T/C","second compound 1 µM, first compound 0.00949 µM",48%
same,"viability, T/C","second compound 1 µM, first compound 0.03 µM",34.1%
same,"viability, T/C","second compound 1 µM, first compound 0.0949 µM",34.5%
same,"viability, T/C","second compound 1 µM, first compound 0.3 µM",31.3%
same,"viability, T/C","second compound 3.16 µM, first compound 0.000949 µM",51.7%
same,"viability, T/C","second compound 3.16 µM, first compound 0.003 µM",46.2%
same,"viability, T/C","second compound 3.16 µM, first compound 0.00949 µM",35.2%
same,"viability, T/C","second compound 3.16 µM, first compound 0.03 µM",33.4%
same,"viability, T/C","second compound 3.16 µM, first compound 0.0949 µM",25%
same,"viability, T/C","second compound 3.16 µM, first compound 0.3 µM",24.6%
same,"viability, T/C","second compound 10 µM, first compound 0.000949 µM",33.4%
same,"viability, T/C","second compound 10 µM, first compound 0.003 µM",36.7%
same,"viability, T/C","second compound 10 µM, first compound 0.00949 µM",28.1%
same,"viability, T/C","second compound 10 µM, first compound 0.03 µM",20.9%
same,"viability, T/C","second compound 10 µM, first compound 0.0949 µM",21.9%
same,"viability, T/C","second compound 10 µM, first compound 0.3 µM",21.9%
